Read-outs that look alike come from different tables or passages of the source.
Key:
Type in all cases: in vivo
[1] = tested on: Abutilon theophrasti (ABUTH); assay: Pre-emergence herbicidal action against ABUTH; details: 100% = plants have died
Summary of the method: (§1)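 Read-out is visual percent damage relative to untreated pots, with 100% meaning dead plants and 0% meaning no difference, assessed roughly three weeks after treatment. Compounds were applied pre-emergence to the covering soil at up to 320 g/ha.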

[2] = tested on: Alopecurus myosuroides (ALOMY); assay: Pre-emergence herbicidal action against ALOMY; details: scored visually after about 3 weeks, 100% = plants have died
Summary of the method: as §1

[3] = tested on: Amaranthus retroflexus (AMARE); assay: Pre-emergence herbicidal action against AMARE; details: visual scoring after about 3 weeks vs untreated controls
Summary of the method: as §1

Avena fatua (AVEFA) [4] = assay: Pre-emergence herbicidal action against AVEFA; details: 320 g/ha, visual scoring after about 3 weeks vs untreated controls
Summary of the method: as §1

Lolium rigidum (LOLRI) [5] = assay: Pre-emergence herbicidal action against LOLRI
Summary of the method: as §1

[6] = tested on: Matricaria inodora (MATIN); assay: Pre-emergence herbicidal action against MATIN
Summary of the method: as §1

[7] = tested on: Pharbitis purpurea (PHBPU); assay: Pre-emergence herbicidal action against PHBPU; details: dosage 320 g/ha
Summary of the method: as §1

[8] = tested on: Polygonum convolvulus (POLCO); assay: Pre-emergence herbicidal action against POLCO
Summary of the method: as §1

Setaria viridis (SETVI) [9] = assay: Pre-emergence herbicidal action against SETVI
Summary of the method: as §1

Viola tricolor (VIOTR) [10] = assay: Pre-emergence herbicidal action against VIOTR
Summary of the method: as §1

Zea mays (ZEAMX) [11] = details: pre-emergence, 80 g/ha, crop plant compatibility, in comparison to untreated controls
Summary of the method: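 Scoring: visual, % of untreated control, about 3 weeks after a pre-emergence application to the soil surface. Application used WP or EC formulations diluted in water with 0.5% additive at 600 l/ha; dosage levels are marked by suffixes a, b and c.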

[12] = tested on: Abutilon theophrasti (ABUTH); assay: Post-emergence herbicidal action against ABUTH; details: visual rating about 3 weeks after treatment vs untreated controls (100% = plants have died, 0% = like control plants)
Summary of the method: (§2)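 Greenhouse plants sprayed at the one-leaf stage, 2–3 weeks after sowing, with WP or EC formulations plus 0.5% additive at 600 l/ha water. Activity rated visually after about 3 weeks versus untreated controls (100% = dead, 0% = like control), at 320 g/ha or lower.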

[13] = tested on: Alopecurus myosuroides (ALOMY); assay: Post-emergence herbicidal action against ALOMY; details: visual rating about 3 weeks after treatment vs untreated controls (100% = plants have died, 0% = like control plants)
Summary of the method: as §2

[14] = tested on: Amaranthus retroflexus (AMARE); assay: Post-emergence herbicidal action against AMARE
Summary of the method: as §2

[15] = tested on: Echinochloa crus-galli (ECHCG); assay: Post-emergence herbicidal action against ECHCG
Summary of the method: as §2

Lolium rigidum (LOLRI) [16] = assay: Post-emergence herbicidal action against LOLRI
Summary of the method: as §2

[17] = tested on: Polygonum convolvulus (POLCO); assay: Post-emergence herbicidal action against POLCO
Summary of the method: as §2

Setaria viridis (SETVI) [18] = assay: Post-emergence herbicidal action against SETVI
Summary of the method: as §2

[19] = tested on: Verconica persica (VERPE); assay: Post-emergence herbicidal action against VERPE
Summary of the method: as §2

Viola tricolor (VIOTR) [20] = assay: Post-emergence herbicidal action against VIOTR
Summary of the method: as §2

Oryza sativa (ORYSA) = details: crop plant compatibility
Summary of the method: (§3)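 Greenhouse crops in sandy loam sprayed post-emergence at the one-leaf stage, 2–3 weeks after sowing, with WP or EC formulations in water plus 0.5% additive at 600 l/ha. Damage rated visually about 3 weeks later versus untreated controls (0% = like control, 100% = dead); suffixes a–c denote different doses.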

Zea mays (ZEAMX) [21] = tested on: Zea mays (ZEAMX)
Summary of the method: as §3

[22] = tested on: Echinochloa crus-galli (ECHCG); assay: Pre-emergence herbicidal action against ECHCG; details: dosage 320 g/ha
Summary of the method: as §1

[23] = tested on: Verconica persica (VERPE); assay: Pre-emergence herbicidal action against VERPE
Summary of the method: as §1

Avena fatua (AVEFA) [24] = assay: Post-emergence herbicidal action against AVEFA; details: 80 g/ha, visual rating about 3 weeks after treatment
Summary of the method: as §2

[25] = tested on: Matricaria inodora (MATIN); assay: Post-emergence herbicidal action against MATIN; details: dosage 80 g/ha
Summary of the method: as §2

[26] = tested on: Pharbitis purpurea (PHBPU); assay: Post-emergence herbicidal action against PHBPU; details: dosage 80 g/ha
Summary of the method: as §2

[27] = Dosage column 320 g/ha (title prints 3200 g/ha), scored visually after about 3 weeks
[28] = 80 g/ha, visual rating about 3 weeks after treatment vs untreated controls (100% = plants have died, 0% = like control plants)
[29] = 80 g/ha, effect in comparison to untreated controls

Which results are given for O=C(O)COc1nn(-c2ncccc2C(F)(F)F)c(-c2ccc(F)nc2)c1Cl [Example I-327]?
Pre-emergence action against ABUTH ([1]; 80 g/ha, scored visually after about 3 weeks vs untreated controls, 0% = like control plants): 100%; Pre-emergence action against ABUTH [1, 27]: 100%; Pre-emergence action against ALOMY ([2]; 320 g/ha): 100%; Pre-emergence action against AMARE in % ([3]; 320 g/ha): 100%; Pre-emergence action against AVEFA in % (Avena fatua (AVEFA) [4]): 80%; Pre-emergence action against LOLRI in % (Lolium rigidum (LOLRI) [5]; dosage 320 g/ha): 100%; Pre-emergence action against MATIN in % ([6]; dosage 80 g/ha): 80%; Pre-emergence action against MATIN in % ([6]; dosage 320 g/ha): 80%; Pre-emergence action against PHBPU in % [7]: 80%; Pre-emergence action against POLCO in % ([8]; dosage 320 g/ha): 90%; Pre-emergence action against SETVI in % (Setaria viridis (SETVI) [9]; dosage 320 g/ha): 100%; Pre-emergence action against VIOTR in % (Viola tricolor (VIOTR) [10]; 320 g/ha, Viola tricolor): 100%; Pre-emergence action against VIOTR in % (Viola tricolor (VIOTR) [10]; dosage 80 g/ha): 100%; Pre-emergence action against ZEAMX in % (Zea mays (ZEAMX) [11]): 20%; Post-emergence action against ABUTH in % ([12]; 80 g/ha): 80%; Post-emergence action against ABUTH in % ([12]; 320 g/ha): 90%; Post-emergence action against ALOMY in % ([13]; 320 g/ha): 100%; Post-emergence action against AMARE in % [14, 28]: 90%; Post-emergence action against AMARE in % ([14]; 320 g/ha, visual rating about 3 weeks after treatment): 90%; Post-emergence action against ECHCG in % ([15]; dosage 80 g/ha): 80%; Post-emergence action against ECHCG in % ([15]; dosage 320 g/ha): 90%; Post-emergence action against LOLRI in % (Lolium rigidum (LOLRI) [16]; dosage 320 g/ha): 90%; Post-emergence action against POLCO in % ([17]; dosage 320 g/ha): 80%; Post-emergence action against SETVI in % (Setaria viridis (SETVI) [18]; dosage 320 g/ha): 90%; Post-emergence action against VERPE in % ([19]; 320 g/ha, VERPE): 90%; Post-emergence action against VERPE in % ([19]; dosage 80 g/ha): 80%; Post-emergence action against VIOTR in % (Viola tricolor (VIOTR) [20]; 80 g/ha): 90%; Post-emergence action against VIOTR in % (Viola tricolor (VIOTR) [20]; 320 g/ha): 90%; Post-emergence action against ORYSA in % (Oryza sativa (ORYSA); [29]): 0%; Post-emergence action against ZEAMX in % (Zea mays (ZEAMX) [21]; crop plant compatibility, 80 g/ha, effect vs untreated controls): 0%

What does the source list for COC(=O)[C@H](C)COC(=O)COc1nn(-c2ccccn2)c(-c2ccc(F)nc2)c1Br [Example I-76]?
Pre-emergence action against ABUTH [1, 27]: 80%; Pre-emergence action against ALOMY ([2]; 80 g/ha): 90%; Pre-emergence action against ALOMY ([2]; 320 g/ha): 100%; Pre-emergence action against AMARE in % ([3]; 80 g/ha): 90%; Pre-emergence action against AMARE in % ([3]; 320 g/ha): 100%; Pre-emergence action against AVEFA in % (Avena fatua (AVEFA) [4]): 90%; Pre-emergence action against ECHCG in % [22]: 90%; Pre-emergence action against LOLRI in % (Lolium rigidum (LOLRI) [5]; dosage 80 g/ha): 90%; Pre-emergence action against LOLRI in % (Lolium rigidum (LOLRI) [5]; dosage 320 g/ha): 100%; Pre-emergence action against MATIN in % ([6]; dosage 80 g/ha): 90%; Pre-emergence action against MATIN in % ([6]; dosage 320 g/ha): 90%; Pre-emergence action against PHBPU in % [7]: 90%; Pre-emergence action against POLCO in % ([8]; dosage 80 g/ha): 80%; Pre-emergence action against POLCO in % ([8]; dosage 320 g/ha): 90%; Pre-emergence action against SETVI in % (Setaria viridis (SETVI) [9]; dosage 80 g/ha): 80%; Pre-emergence action against SETVI in % (Setaria viridis (SETVI) [9]; dosage 320 g/ha): 100%; Pre-emergence action against VERPE in % ([23]; dosage 80 g/ha): 100%; Pre-emergence action against VERPE in % ([23]; dosage 320 g/ha): 100%; Pre-emergence action against VIOTR in % (Viola tricolor (VIOTR) [10]; 320 g/ha, Viola tricolor): 100%; Pre-emergence action against VIOTR in % (Viola tricolor (VIOTR) [10]; dosage 80 g/ha): 100%; Post-emergence action against ABUTH in % ([12]; 80 g/ha): 90%; Post-emergence action against ALOMY in % ([13]; 80 g/ha): 100%; Post-emergence action against AMARE in % [14, 28]: 80%; Post-emergence action against AVEFA in % (Avena fatua (AVEFA) [24]): 90%; Post-emergence action against ECHCG in % ([15]; dosage 80 g/ha): 90%; Post-emergence action against LOLRI in % (Lolium rigidum (LOLRI) [16]; dosage 80 g/ha): 80%; Post-emergence action against MATIN in % [25]: 80%; Post-emergence action against PHBPU in % [26]: 90%; Post-emergence action against POLCO in % ([17]; dosage 80 g/ha): 80%; Post-emergence action against SETVI in % (Setaria viridis (SETVI) [18]; dosage 80 g/ha): 90%; Post-emergence action against VERPE in % ([19]; dosage 80 g/ha): 80%; Post-emergence action against ORYSA in % (Oryza sativa (ORYSA); 20 g/ha, effect vs untreated controls): 0%; Post-emergence action against ORYSA in % (Oryza sativa (ORYSA); [29]): 0%; Post-emergence action against ZEAMX in % (crop plant compatibility) (Zea mays (ZEAMX) [21]; 20 g/ha, ZEAMX, effect in comparison to untreated controls): 20%

— patent US20240041042A1, “1-(PYRIDYL)-5-AZINYLPYRAZOLE DERIVATIVES, AND THEIR USE FOR CONTROL OF UNDESIRED PLANT GROWTH” (Bayer Aktiengesellschaft, priority 2020, published 2024)
